Peptide text beside a SMILES is read from it. * marks the point of attachment. X1 = C=CC(=O)NCCCCC(NC(=O)OCc1ccccc1)C(=O)N1CCN(C(=O)C(CCC(=O)*)NC(=O)c2cccc3ccccc23)CC1
Target: T1, TG1 (Homo sapiens, UniProt P22735)
T1 construct: purchased Zedira GmbH (Darmstadt, Germany)
T1 sequence (P22735 1-817): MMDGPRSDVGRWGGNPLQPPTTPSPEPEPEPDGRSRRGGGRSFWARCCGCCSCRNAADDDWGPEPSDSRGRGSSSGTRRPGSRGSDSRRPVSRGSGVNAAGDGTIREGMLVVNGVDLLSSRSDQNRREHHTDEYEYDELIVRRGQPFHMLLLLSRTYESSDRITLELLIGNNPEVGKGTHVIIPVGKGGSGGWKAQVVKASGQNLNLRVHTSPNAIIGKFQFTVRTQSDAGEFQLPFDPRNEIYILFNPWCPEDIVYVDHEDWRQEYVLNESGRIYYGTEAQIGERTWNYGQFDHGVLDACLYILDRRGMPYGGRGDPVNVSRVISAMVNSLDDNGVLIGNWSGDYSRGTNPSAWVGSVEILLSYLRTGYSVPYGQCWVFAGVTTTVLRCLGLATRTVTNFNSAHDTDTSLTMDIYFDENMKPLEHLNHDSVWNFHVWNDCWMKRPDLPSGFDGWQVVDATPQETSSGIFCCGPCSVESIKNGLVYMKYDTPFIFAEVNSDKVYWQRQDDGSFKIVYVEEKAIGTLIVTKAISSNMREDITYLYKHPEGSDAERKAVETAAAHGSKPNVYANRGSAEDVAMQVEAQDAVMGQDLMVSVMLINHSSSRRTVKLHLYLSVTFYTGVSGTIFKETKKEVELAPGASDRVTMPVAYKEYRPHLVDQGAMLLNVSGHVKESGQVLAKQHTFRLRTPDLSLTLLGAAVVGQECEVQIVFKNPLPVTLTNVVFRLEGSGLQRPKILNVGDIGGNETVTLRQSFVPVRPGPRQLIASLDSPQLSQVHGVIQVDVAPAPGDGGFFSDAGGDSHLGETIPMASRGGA
Test: TGase isozyme selectivity, TG1 with AL5 substrate
Assay type: biochemical
Details: [I]/α identical to that of the TG2 assay
Source text: In the development of probes for TGases, isozyme selectivity is always a significant challenge. Since the catalytic machinery of the active sites of all TGases features a conserved Gly-Gln-Cys-Trp-Val sequence, selectivity for one isozyme over the others requires exploitation of slight differences in the protein substrate binding sites. In order to assess the isozyme selectivity of our cell-impermeable inhibitors, TG2 and four other therapeutically relevant TGases (Factor XIII, TG1, TG3, and TG6) were exposed to a concentration of inhibitor representing the same apparent competition with respect to the assay substrate (AL5 [38] or A101 [42, 43]). In other words, both the substrate and inhibitor concentrations were varied so that the [I]/α values were identical. […] This provides confidence that in further applications, these cell-impermeable inhibitors will selectively target TG2 over other transglutaminases.
To monitor the activity of TG3a and TG6, a FRET-quenched substrate A101 (Zedira Gmbh) was used. […] The isopeptidase activity of the respective TGase was then monitored at Ex/Em = 313/418 nm with a BioTek Synergy 4 plate reader at 25 °C. […]

| SMILES | inhibition of TG1 |
| --- | --- |
| C=CC(=O)NCCCCC(NC(=O)OCc1ccccc1)C(=O)N1CCN(C(=O)C(CCC(=O)NCCCCCC(=O)NC(CC(=O)O)C(=O)NC(CC(=O)O)C(=O)NC(CC(=O)O)C(=O)O)NC(=O)c2cccc3ccccc23)CC1 (centres unmarked) [Compound 17] | no detectable inhibition |
| C=CC(=O)NCCCCC(NC(=O)OCc1ccccc1)C(=O)N1CCN(C(=O)C(CCC(=O)NCC(=O)NCC(=O)NCC(=O)NC(CC(=O)O)C(=O)NC(CC(=O)O)C(=O)NC(CC(=O)O)C(=O)O)NC(=O)c2cccc3ccccc23)CC1 (centres unmarked) [Compound 18] (X1-GGGDDD-OH; configuration not given here) | no detectable inhibition |

Source: PMC10454375, “Cell-Impermeable Inhibitors Confirm That Intracellular Human Transglutaminase 2 Is Responsible for the Transglutaminase-Associated Cancer Phenotype” (International Journal of Molecular Sciences, 2023)
